Measured values taken from patent US20190030114A1, “ISOFORM-SPECIFIC CALPAIN INHIBITORS, METHODS OF IDENTIFICATION, AND USES THEREOF” (WESTERN UNIVERSITY OF HEALTH SCIENCES, priority 2014, published 2019).

What was measured:
retina (GCL, IPL, RGC) = assay: acute IOP elevation (acute angle closure glaucoma model), systemic (i.p.) C2l; type: in vivo, mice
learning and memory = assay: fear conditioning protocol; type: in vivo, mice; settings: various doses i.p. 30 min before training
Procedure: (§1) FIG. 7A: Effects of an calpain-2 selective inhibitor on fear conditioning. […] Various doses of the compound of Formula I (m-CalpI in the drawing) were injected i.p. 30 min before training to learn the association between a context or a tone with a painful stimulus. Animals were tested 24 h later for their fear responses to the context, and memory strength was quantified by the amount of time mice freeze (their biological response to fear). The ratio between the doses producing enhancement and decrease matches the ratio between the Kis to inhibit calpain-2 and calpain-1. […] Results are means±S.E.M. of 8-10 experiments. *p<0.05 (ANOVA followed by Bonferroni post-test).
as §1, with “7B:” for “7A:”, “1 (m-CalpI)” for “I (m-CalpI in the drawing)”, “48” for “24”, “tone,” for “context,”
Formula 1 Enhances Memory. […] In this protocol, mice were trained to learn the association between a context or a tone with a painful stimulus. Various doses of the compound of Formula 1 (mCalp-I) were injected i.p. 30 min before training. Animals were tested 24 h later in the context (FIG. 7A) and 48 h later with the tone (FIG. 7B). When tested 24 h or 48 h later for their fear responses to either the context or the tone, memory strength was quantified by the amount of time mice freeze (their biological response to fear). The ratio between the doses producing enhancement and decrease matches the ratio between the Kis to inhibit calpain-2 and calpain-1. […] Results are means±S.E.M. of 8-10 experiments. *p<0.05 (ANOVA followed by Bonferroni post-test).

[1] = system: field CA1 in acute hippocampal slices from male UBEA mutant mice; assay: field EPSP recording, LTP in hippocampal slices from UBEA mutant mice (Angelman Syndrome model); type: cell-based; settings: 200 nM
Procedure: FIG. 4: Field recording of excitatory postsynaptic potentials (EPSPs) performed in stratum radiatum of field CA1 in acute hippocampal slices prepared from male UBEA mutant mice (a model of Angelman Syndrome) or their wild-type littermates in the presence or absence of 200 nM of the calpain-2 selective inhibitor, Formula I (mCalp-I in the drawing). Results are expressed as percent of the average values over a 10 min baseline period and are means±S.E.M. of the indicated number of experiments.
A calpain 2-specific inhibitor rescues LTP impairment in hippocampal slices from a mouse model of Angelman Syndrome. Field recording of excitatory postsynaptic potentials (EPSPs) was performed in stratum radiatum of field CA1 in acute hippocampal slices prepared from male UBEA mutant mice or their wild-type littermates.

[2] = system: retina (GCL, RGC), vision; assay: acute IOP elevation, intravitreal C2l: GCL cell death, OKR visual acuity, RGC density
Procedure: FIG. 12C: H&E staining in retinal sections of WT mice after IOP elevation and intravitreal injection of vehicle or C2l. Vehicle or C2l (20 μM, 1 μI) was injected 2 h after IOP elevation or sham surgery. Eyes were collected 3 days after surgery for H&E staining. Scale bar=30 μm.
FIG. 12D: Quantification of GCL cell numbers, based on H&E stains, as described in FIG. 12C.
FIG. 12F: OKR spatial frequency thresholds of eyes measured 3 days after IOP elevation or sham surgery. Vehicle or C2l (20 μM, 1 μI) was injected intravitreally 2 h after surgery. Surgery and injection were always performed in the right eye (OD). OKR of the Left eye (OS) was measured as control.
One-way ANOVA followed by Bonferroni test.
FIG. 12H: RGC density in the retina of the eyes at 21 days after surgery, as described in FIG. 12F. Eyes were collected after OKR test 21 days after surgery. Brn-3a immunostaining was performed in retinal sections of the eyes. Brn-3a-positive cells in GCL were counted.
We used intravitreal C2l injection in order to locally deliver C2l to retina. First, we tested the delivery efficiency by injecting different doses of C2l intravitreally 2 h after IOP elevation in calpain-1 KO mice and analyzing SBDP levels in IPL at 4 h (FIG. 12A and B). […] In all subsequent experiments, 20 μM (1 μl) was used to examine the neuroprotective effects of intravitreal C2l injection. Eyes were collected 3 days after surgery for H&E staining.
To examine vision of mice after glaucoma, we tested the optokinetic reflex (OKR) in mice (FIG. 15A). OKR is the saccadic eye movement triggered by the movement of gratings in front of the mouse eye. Changing the frequency of gratings and determining the […] frequency triggering OKR, allows analyzing visual acuity of each eye. Acute IOP elevation or sham surgery was performed in the right eye (OD). Left eye (OS) served as a naive control. Intravitreal C2l or vehicle injection was performed 2 h after surgery. Three and 21 days after surgery, OKR was determined in both eyes (FIG. 5f,g). […] Mice were sacrificed after OKR test at day 21 and RGC densities were analyzed with brn-3a immunostaining in retinal sections (FIG. 12H).

[3] = injected 2 h after IOP elevation, WT mice, n=5

CCC(NC(=O)C(CC(C)C)NC(=O)OCc1ccccc1)C(=O)C(=O)NCc1cc(OC)cc(OC)c1 (racemic) [Formula 1, Z-Leu-Abu-CONH—CH2-C6H3 (3, 5-(OMe)2)]
survival rate of RGC versus vehicle (retina (GCL, IPL, RGC); injected 2 h after IOP elevation): significantly improved
RGC counts (brn-3a), IOP-elevated eye (retina (GCL, IPL, RGC); [3]): 37.1±2.5 cells/mm
RGC counts (brn-3a), sham eye (retina (GCL, IPL, RGC); [3]): 45.2±5.0 cells/mm
changes in PHLPP1 and pAkt after IOP elevation (retina (GCL, IPL, RGC); retina 3 h after IOP elevation, 0.3 mg/kg at 2 h): present in C2l-injected WT mice
effect on learning and memory in the fear conditioning protocol (learning and memory; context 24 h, tone 48 h): biphasic effect
effect on learning and memory, fear response to the context (learning and memory; tested 24 h later): biphasic effect
effect on learning and memory, fear response to the tone (learning and memory; tested 48 h later): biphasic effect
LTP magnitude in slices from UBEA mutant mice [1]: restored LTP magnitude to the level found in slices from wild-type mice
initial increase in fEPSP elicited by TBS [1]: no effect
RGC counts (H&E), IOP-elevated eyes ([2]; 20 μM (1 μl) intravitreal 2 h after IOP elevation, 3 days): 101.3±9.2 cells/mm
Survival rate in GCL ([2]; 20 μM (1 μl) intravitreal 2 h after IOP elevation, vehicle 47.2±5.4%): 80.8±8.4%
RGC counts (H&E), sham eye ([2]; 20 μM (1 μl) intravitreal 2 h after surgery, 3 days): 128.1±7.2 cells/mm
RGC densities (brn-3a) in IOP elevated eyes ([2]; day 21): recovered
visual acuity (OKR) after increased IOP ([2]; intravitreal 2 h after surgery, day 3 and day 21): significantly improved
visual acuity (OKR) of sham eye versus vehicle ([2]; intravitreal injection in the sham eye): did not affect visual acuity
